The supplement of paper PMC10307832

Legend:
Experiment in all cases: relative viability (nuclei count vs DMSO), 5 days (fraction); higher = more cells survive
Vemurafenib + Decitabine = compound: CCCS(=O)(=O)Nc1ccc(F)c(C(=O)c2c[nH]c3ncc(-c4ccc(Cl)cc4)cc23)c1F [Vemurafenib] + Nc1ncn([C@H]2C[C@H](O)[C@@H](CO)O2)c(=O)n1 [Decitabine] (partner 2 µM)
Outline: (§1)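 Five library-drug doses in √10 steps were combined with a fixed anchor-drug dose, or a single drug was given alone, by pin tool to lung cancer cell lines in 1536-well plates the day after seeding. Nuclei were stained and counted after 5 days. Relative viability is the nuclei count in treated wells over that in vehicle wells, taken as the median of duplicate plates.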

Vemurafenib + Navitoclax = compound: CCCS(=O)(=O)Nc1ccc(F)c(C(=O)c2c[nH]c3ncc(-c4ccc(Cl)cc4)cc23)c1F [Vemurafenib] + CC1(C)CCC(c2ccc(Cl)cc2)=C(CN2CCN(c3ccc(C(=O)NS(=O)(=O)c4ccc(N[C@H](CCN5CCOCC5)CSc5ccccc5)c(S(=O)(=O)C(F)(F)F)c4)cc3)CC2)C1 [Navitoclax] (partner 0.5 µM)
Outline: as §1

OSI-027 + Linsitinib = compound: COc1cccc2cc(-c3nc([C@H]4CC[C@H](C(=O)O)CC4)n4ncnc(N)c34)[nH]c12 [OSI-027] + C[C@]1(O)C[C@@H](c2nc(-c3ccc4ccc(-c5ccccc5)nc4c3)c3c(N)nccn32)C1 [Linsitinib] (partner 1 µM)
Outline: as §1

Vemurafenib + Tozasertib = compound: CCCS(=O)(=O)Nc1ccc(F)c(C(=O)c2c[nH]c3ncc(-c4ccc(Cl)cc4)cc23)c1F [Vemurafenib] + Cc1cc(Nc2cc(N3CCN(C)CC3)nc(Sc3ccc(NC(=O)C4CC4)cc3)n2)n[nH]1 [Tozasertib] (partner 0.1 µM)
Outline: as §1

Cell Line	relative viability (Vemurafenib + Decitabine; first compound 0.03162 µM)	relative viability (Vemurafenib + Decitabine; first compound 0.1 µM)	relative viability (Vemurafenib + Decitabine; first compound 0.3162 µM)	relative viability (Vemurafenib + Decitabine; first compound 1 µM)	relative viability (Vemurafenib + Navitoclax; first compound 0.03162 µM)	relative viability (Vemurafenib + Navitoclax; first compound 0.3162 µM)	relative viability (Vemurafenib + Navitoclax; first compound 1 µM)	relative viability (OSI-027 + Linsitinib; first compound 0.01 µM)	relative viability (OSI-027 + Linsitinib; first compound 0.03162 µM)	relative viability (OSI-027 + Linsitinib; first compound 0.1 µM)	relative viability (OSI-027 + Linsitinib; first compound 0.3162 µM)	relative viability (OSI-027 + Linsitinib; first compound 1 µM)	relative viability (Vemurafenib + Tozasertib; first compound 0.03162 µM)	relative viability (Vemurafenib + Tozasertib; first compound 0.1 µM)	relative viability (Vemurafenib + Tozasertib; first compound 0.3162 µM)	relative viability (Vemurafenib + Tozasertib; first compound 1 µM)	relative viability (Vemurafenib + Navitoclax; first compound 0.1 µM)
NCI-H1666	0.612	0.724	0.686	0.764	0.932	1.06	0.972	0.775	0.536	0.459	0.337	0.39	0.575	0.549	0.801	0.579	
NCI-H647	0.478	0.396	0.38	0.444	1.05		1.23	1.29	1.2	0.944	0.855	0.496	0.262	0.263	0.271	0.248	0.913
NCI-H1623													0.409		0.452	0.41	
NCI-H23	0.287	0.272	0.353	0.322	0.894	0.888	0.796	0.517	0.549	0.452	0.237	0.212	0.309	0.352	0.345	0.278	0.9
NCI-H1915	0.244	0.253	0.26	0.244	0.757	0.745	0.789	1.11	1.13	1.12	1.02	0.863	0.436	0.439	0.411	0.342	0.795
HOP-62	0.196	0.202	0.216	0.2	0.939	0.966	1.05	0.952	1.2	1.04	0.712	0.359	0.418	0.372	0.332	0.389	1.12
NCI-H2342	0.705	0.702	0.773	0.706									0.477	0.478	0.629	0.417	
NCI-H520	0.463	0.482	0.479	0.519	1.04	1.11	1.15	1.08	0.931	0.888	0.614	0.311	0.529	0.411	0.435	0.415	1.16
COR-L23	0.417	0.464	0.336	0.424	0.841	0.76	0.953	1.02	0.837	0.792	0.549	0.181	0.14	0.202	0.181	0.143	0.988
A549	0.163	0.227	0.155	0.224	1.09	1.31	1.16	0.582	0.479	0.372	0.263	0.0989					1.29
H3255	0.524		0.604	0.605	0.493	0.57	0.386	0.943	1	0.929	0.825	0.452	0.603		0.644	0.619	
NCI-H1792	0.539	0.564		0.477	0.565	0.439	0.593	0.466	0.237	0.394	0.229	0.22					0.61
EBC-1					0.409	0.453	0.461	0.901	0.886	0.916	0.78	0.419					0.408
NCI-H2170	0.435		0.441	0.455	0.532	0.639	0.484						0.637	0.617	0.751	0.679	0.251
ABC-1	1.01	1.13	0.967	0.977				0.768	0.749	0.58	0.32	0.316	0.151	0.174	0.181	0.202	
NCI-H1563								1.13	1.21	1.1	0.929	0.677					
NCI-H2228					0.687	1.04	0.841	0.637	0.768	0.576		0.368	0.228	0.234	0.244	0.21	0.752
CAL-12T					1.28	1.47	1.28	0.704	0.753	0.724	0.445	0.353	0.31	0.289	0.346	0.26	1.2
LCLC-103H	0.698	0.714	0.717	0.75				0.994	0.968	1.07	0.906	1.05	0.476	0.395	0.493	0.487	
Calu-6					0.866	0.609	0.707	0.959	0.87	0.864	0.673	0.504					0.814
NCI-H650	0.311	0.334	0.308	0.33				0.701	0.892	0.492	0.442	0.334	0.696	0.703		0.614	
ChaGo-K-1	0.548	0.47	0.493	0.512	0.949		0.958						0.22	0.195	0.257	0.204	0.809
NCI-H1648		0.351	0.762	0.463									0.489		0.962	0.477	
NCI-H358	0.211	0.228	0.226	0.229				0.676	0.503	0.671	0.376	0.366	0.122	0.107	0.107	0.111	
SW 900	0.428	0.346	0.439	0.466									0.455	0.557	0.585	0.435	
